The source of these data is patent publication US7960408B2, “Quinolinyl and benzothiazolyl modulators” (Amgen Inc., priority 2000, dated 2011).

A value given as a limit tells only on which side of the number the result lay.

For one data set, the target named is T1, PPARγ (Homo sapiens, UniProt P37231).
T1 construct: made in house
T1 sequence (P37231 1-505): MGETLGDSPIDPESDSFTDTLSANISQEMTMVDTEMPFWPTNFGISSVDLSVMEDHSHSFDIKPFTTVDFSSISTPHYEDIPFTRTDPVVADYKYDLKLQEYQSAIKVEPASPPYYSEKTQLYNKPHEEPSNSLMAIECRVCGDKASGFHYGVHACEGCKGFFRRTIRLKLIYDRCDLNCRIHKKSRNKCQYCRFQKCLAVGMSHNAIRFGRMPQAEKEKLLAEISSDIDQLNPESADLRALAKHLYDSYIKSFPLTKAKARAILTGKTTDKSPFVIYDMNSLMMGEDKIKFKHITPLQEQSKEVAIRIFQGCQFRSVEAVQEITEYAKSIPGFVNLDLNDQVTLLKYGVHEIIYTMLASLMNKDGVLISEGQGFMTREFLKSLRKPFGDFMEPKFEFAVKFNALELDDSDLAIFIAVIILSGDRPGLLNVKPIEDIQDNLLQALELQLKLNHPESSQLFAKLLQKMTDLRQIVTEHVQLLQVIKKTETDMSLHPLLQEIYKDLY
In words: PPARγ ligand binding assay utilizing [3H]-BRL 49653 as the radioligand. Particulars: concentration required to reduce by 50% the specific binding of [3H]-BRL 49653. The essentials:
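Displacement of 10 nM [3H]-BRL 49653 from PPARγ-GST fusion protein (1 μg/well) in Tris-HCl pH 8.0 buffer with KCl, DTT, BSA and NP-40; 15 min incubation, then glutathione-bead capture for 1 h, washing and scintillation counting. IC50 is the concentration halving specific radioligand binding.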

Usually IC50 stands for the midpoint of a concentration-inhibition curve. Low values mean inhibition by little substance, high ones a need for much substance. The melting point is the temperature, or range, at which the solid turns liquid. `O=S(=O)(Nc1cc(Cl)c(Sc2cnc3ccccc3c2)c(Cl)c1)c1ccccc1Cl` [Compound 3]: the melting point was 219.6 °C. At PPARγ, this molecule returned a half-maximal inhibitory concentration (IC50) of under 1000 nM.
